For three molecules, IC50, Activity and viability results are on record in ChEMBL document CHEMBL4052702 (Bioorg Med Chem Lett, 2017).

One assay concerns the target T1, Histone deacetylase 8 (Homo sapiens, UniProt Q9BY41).
T1 sequence (Q9BY41 whole entry): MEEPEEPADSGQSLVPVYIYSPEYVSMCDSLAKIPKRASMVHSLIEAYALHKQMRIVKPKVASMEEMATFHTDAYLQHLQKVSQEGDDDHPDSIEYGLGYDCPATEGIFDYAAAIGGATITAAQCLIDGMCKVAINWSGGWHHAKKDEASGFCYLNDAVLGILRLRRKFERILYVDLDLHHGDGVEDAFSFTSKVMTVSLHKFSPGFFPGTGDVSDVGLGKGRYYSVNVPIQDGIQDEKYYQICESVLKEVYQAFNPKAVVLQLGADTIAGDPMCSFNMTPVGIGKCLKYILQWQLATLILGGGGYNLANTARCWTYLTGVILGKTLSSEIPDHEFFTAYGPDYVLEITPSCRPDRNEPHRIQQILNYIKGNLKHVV
Nature of the assay: Inhibition of HDAC8 (unknown origin) by ELISA-based assay. On the technique in general: ELISA stands for enzyme-linked immunosorbent assay.

Assay [1] addresses T2, Histone deacetylase 3 (Homo sapiens, UniProt O15379). Description: Inhibition of HDAC3 (unknown origin) assessed as remaining enzyme activity at 4 x 10^-6 M by ELISA-based assay.
Assay [2] deals with T3, Histone deacetylase 8 (Homo sapiens) (UniProt Q9BY41).
T3 sequence (whole entry): T1 sequence (Q9BY41 whole entry)
Description: Inhibition of HDAC8 (unknown origin) assessed as remaining enzyme activity at 4 x 10^-7 M by ELISA-based assay.

Assay [3] addresses T4, Histone deacetylase 2 (Homo sapiens, UniProt Q92769). Nature of the assay: Inhibition of HDAC2 (unknown origin) assessed as remaining enzyme activity at 4 x 10^-6 M by ELISA-based assay.
Assay [4] deals with T5, Histone deacetylase 1 (Homo sapiens, UniProt Q13547). Description: Inhibition of HDAC1 (unknown origin) by ELISA-based assay.
T5 sequence (Q13547 whole entry): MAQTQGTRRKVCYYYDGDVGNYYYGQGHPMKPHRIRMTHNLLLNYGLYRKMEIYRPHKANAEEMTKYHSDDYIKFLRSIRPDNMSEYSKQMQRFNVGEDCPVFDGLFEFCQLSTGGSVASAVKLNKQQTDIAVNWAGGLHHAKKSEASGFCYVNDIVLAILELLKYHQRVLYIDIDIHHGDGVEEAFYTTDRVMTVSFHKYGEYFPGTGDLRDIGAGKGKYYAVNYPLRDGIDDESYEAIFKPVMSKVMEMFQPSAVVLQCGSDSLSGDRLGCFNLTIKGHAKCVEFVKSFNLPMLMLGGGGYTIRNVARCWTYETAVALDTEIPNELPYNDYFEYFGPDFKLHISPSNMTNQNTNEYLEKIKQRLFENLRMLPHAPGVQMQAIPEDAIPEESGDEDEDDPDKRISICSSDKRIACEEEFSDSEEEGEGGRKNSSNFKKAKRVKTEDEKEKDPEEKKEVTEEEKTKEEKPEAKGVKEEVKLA
The target in assay [5] is T3, Histone deacetylase 8 (Homo sapiens). Description: Inhibition of HDAC8 (unknown origin) assessed as remaining enzyme activity at 1 x 10^-7 M by ELISA-based assay.
Assay [6] shares this target. Nature of the assay: Inhibition of HDAC8 (unknown origin) assessed as remaining enzyme activity at 2 x 10^-7 M by ELISA-based assay.
Assay [7] has as its target T2, Histone deacetylase 3. Nature of the assay: Inhibition of HDAC3 (unknown origin) by ELISA-based assay.
Assay [8] deals with T4, Histone deacetylase 2. Nature of the assay: Inhibition of HDAC2 (unknown origin) by ELISA-based assay.
Assay [9] is described as follows: Inhibition of HDAC in human HeLa-S3 cells lysates pre-incubated for 15 mins before HDAC-Glo I/II substrate addition and measured after 30 mins post substrate addition. The assay is classed as cell-based.
The target of assay [10] is T2, Histone deacetylase 3. Nature of the assay: Inhibition of HDAC3 (unknown origin) assessed as remaining enzyme activity at 2 x 10^-6 M by ELISA-based assay.
Assay [11] addresses T6, Protein deacetylase HDAC6 (Homo sapiens) (UniProt Q9UBN7).
T6 sequence (whole entry): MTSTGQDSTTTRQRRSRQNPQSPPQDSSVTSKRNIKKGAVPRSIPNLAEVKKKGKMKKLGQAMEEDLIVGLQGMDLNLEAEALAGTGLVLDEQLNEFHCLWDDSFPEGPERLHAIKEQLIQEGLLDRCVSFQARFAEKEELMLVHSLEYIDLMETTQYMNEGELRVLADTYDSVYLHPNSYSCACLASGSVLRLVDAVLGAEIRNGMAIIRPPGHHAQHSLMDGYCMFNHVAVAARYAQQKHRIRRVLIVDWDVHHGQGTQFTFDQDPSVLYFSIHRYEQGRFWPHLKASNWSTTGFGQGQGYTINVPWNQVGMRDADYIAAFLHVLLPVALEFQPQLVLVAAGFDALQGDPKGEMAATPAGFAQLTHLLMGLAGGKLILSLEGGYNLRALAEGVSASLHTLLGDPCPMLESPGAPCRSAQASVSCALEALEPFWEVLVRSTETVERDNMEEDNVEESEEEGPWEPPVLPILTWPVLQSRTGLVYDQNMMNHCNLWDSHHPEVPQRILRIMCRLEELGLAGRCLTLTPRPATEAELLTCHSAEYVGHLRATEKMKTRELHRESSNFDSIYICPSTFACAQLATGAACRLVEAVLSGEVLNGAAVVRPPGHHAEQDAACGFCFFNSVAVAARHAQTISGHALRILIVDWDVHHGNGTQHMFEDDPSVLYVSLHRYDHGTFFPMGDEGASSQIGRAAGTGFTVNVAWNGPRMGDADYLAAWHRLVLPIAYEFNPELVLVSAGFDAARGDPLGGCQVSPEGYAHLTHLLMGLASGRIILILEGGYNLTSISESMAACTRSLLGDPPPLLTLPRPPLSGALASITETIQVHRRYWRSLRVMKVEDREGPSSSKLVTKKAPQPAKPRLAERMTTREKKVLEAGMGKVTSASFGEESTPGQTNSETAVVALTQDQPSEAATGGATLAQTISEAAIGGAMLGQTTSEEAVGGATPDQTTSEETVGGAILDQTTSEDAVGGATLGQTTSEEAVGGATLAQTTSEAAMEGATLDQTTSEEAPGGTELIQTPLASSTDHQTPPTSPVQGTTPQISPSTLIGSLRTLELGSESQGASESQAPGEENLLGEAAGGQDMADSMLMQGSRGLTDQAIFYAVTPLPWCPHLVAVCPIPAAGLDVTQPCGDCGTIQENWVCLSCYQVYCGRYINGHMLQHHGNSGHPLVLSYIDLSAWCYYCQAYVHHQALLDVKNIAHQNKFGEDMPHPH
Description: Inhibition of HDAC6 (unknown origin) assessed as remaining enzyme activity at 4 x 10^-7 M by ELISA-based assay.

Assay [12] deals with Jurkat. Nature of the assay: cells. The assay is classed as functional. Conditions: Homo sapiens, 44 h.
Assay [13] concerns Jurkat. Nature of the assay: cells. Conditions: Homo sapiens, 44 h. The assay is classed as functional. The source holds these as a separate data set.
The target of assay [14] is T7, Protein deacetylase HDAC6 (Homo sapiens, UniProt Q9UBN7).
T7 sequence (Q9UBN7 whole entry): T6 sequence (whole entry)
Nature of the assay: Inhibition of HDAC6 (unknown origin) by ELISA-based assay.

Assay [15] has as its target T5, Histone deacetylase 1. Description: Inhibition of HDAC1 (unknown origin) assessed as remaining enzyme activity at 5 x 10^-7 M by ELISA-based assay.
The target in assay [16] is T6, Protein deacetylase HDAC6 (Homo sapiens). Nature of the assay: Inhibition of HDAC6 (unknown origin) assessed as remaining enzyme activity at 5 x 10^-8 M by ELISA-based assay.
In assay [17] the target is T5, Histone deacetylase 1. Nature of the assay: Inhibition of HDAC1 (unknown origin) assessed as remaining enzyme activity at 4 x 10^-6 M by ELISA-based assay.
The target in assay [18] is T6, Protein deacetylase HDAC6 (Homo sapiens). Description: Inhibition of HDAC6 (unknown origin) assessed as remaining enzyme activity at 8 x 10^-7 M by ELISA-based assay.
Assay [19] shares this target. Description: Inhibition of HDAC6 (unknown origin) assessed as remaining enzyme activity at 1 x 10^-7 M by ELISA-based assay.
The target in assay [20] is T4, Histone deacetylase 2. Nature of the assay: Inhibition of HDAC2 (unknown origin) assessed as remaining enzyme activity at 2 x 10^-6 M by ELISA-based assay.
Assay [21] addresses T3, Histone deacetylase 8 (Homo sapiens). Nature of the assay: Inhibition of HDAC8 (unknown origin) assessed as remaining enzyme activity at 8 x 10^-7 M by ELISA-based assay.
Assay [22] has as its target T5, Histone deacetylase 1. Description: Inhibition of HDAC1 (unknown origin) assessed as remaining enzyme activity at 2 x 10^-6 M by ELISA-based assay.

SMILES strings stand for the structures.

T2 sequence (O15379 whole entry): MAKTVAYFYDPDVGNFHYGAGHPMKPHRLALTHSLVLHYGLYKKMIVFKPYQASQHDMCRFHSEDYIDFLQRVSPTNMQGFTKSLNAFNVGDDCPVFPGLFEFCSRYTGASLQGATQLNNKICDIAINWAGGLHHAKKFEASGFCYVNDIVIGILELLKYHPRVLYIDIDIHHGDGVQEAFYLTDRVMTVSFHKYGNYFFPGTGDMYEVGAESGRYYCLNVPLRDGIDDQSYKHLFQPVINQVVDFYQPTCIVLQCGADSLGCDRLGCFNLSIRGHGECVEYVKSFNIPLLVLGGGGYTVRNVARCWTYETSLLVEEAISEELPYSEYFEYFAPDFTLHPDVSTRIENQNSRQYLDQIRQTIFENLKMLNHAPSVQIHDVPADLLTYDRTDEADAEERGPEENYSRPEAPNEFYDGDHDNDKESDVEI
T4 sequence (Q92769 whole entry): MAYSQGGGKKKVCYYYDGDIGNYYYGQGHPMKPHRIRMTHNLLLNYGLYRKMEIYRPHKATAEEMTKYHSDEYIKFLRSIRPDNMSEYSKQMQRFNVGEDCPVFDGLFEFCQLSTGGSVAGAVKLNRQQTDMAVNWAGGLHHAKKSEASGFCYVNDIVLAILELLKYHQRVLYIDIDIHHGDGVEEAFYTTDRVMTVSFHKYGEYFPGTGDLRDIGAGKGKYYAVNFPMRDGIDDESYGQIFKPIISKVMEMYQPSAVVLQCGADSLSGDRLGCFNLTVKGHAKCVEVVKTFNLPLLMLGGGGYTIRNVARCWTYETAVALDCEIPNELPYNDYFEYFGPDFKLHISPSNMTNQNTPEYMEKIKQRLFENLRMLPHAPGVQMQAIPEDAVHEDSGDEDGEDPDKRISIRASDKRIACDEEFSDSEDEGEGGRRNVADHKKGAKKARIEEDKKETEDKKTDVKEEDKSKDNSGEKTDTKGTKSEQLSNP

Consider `CCCCCCC(CCCC(=O)NO)CCC(=O)Nc1ccccc1` (centres undefined), for which the IC50 against Histone deacetylase 8 is 0.42 µM; at Histone deacetylase 1 [4], 2.1 µM; on Histone deacetylase 3 [7], 2.9 µM; against Histone deacetylase 2 [8], 2.5 µM; in assay [9] it was 6.5 µM; in [14], 0.41 µM. For the same molecule, the Activity came out at 39% on Histone deacetylase 3 [1]; 51% in assay [2]; 41% at Histone deacetylase 2 [3]; 78% in [5]; 70% in assay [6]; 67% at Histone deacetylase 3 [10]. The Activity came out at 54% in assay [11]; 77% on Histone deacetylase 1 [15]; 82% in assay [16]; 37% on Histone deacetylase 1 [17]; 34% in assay [18]; 69% in [19]. Besides, the Activity on Histone deacetylase 2 [20] was 57%; in assay [21], 35%; at Histone deacetylase 1 [22] it was 54%. Besides, the viability at 1 µM in the assay on Jurkat [12] was found to be 101%. In addition, in the assay with Jurkat [13], the viability at 10 µM turned out to be 24%.

Regarding `CCCCC(CCCC(=O)NO)CCC(=O)Nc1ccccc1` (centres undefined), the IC50 came to 0.43 µM at Histone deacetylase 8; 1.1 µM at Histone deacetylase 1 [4]; 1.6 µM at Histone deacetylase 3 [7]; 1.3 µM against Histone deacetylase 2 [8]; 5 µM in [9]; 0.32 µM in assay [14]. The Activity at Histone deacetylase 3 [1] amounted to 27%; in [2], 50%; on Histone deacetylase 2 [3], 25%; in assay [5], 83%; in [6], 69%; at Histone deacetylase 3 [10], 44%. Moreover, the Activity in assay [11] turned out to be 48%; at Histone deacetylase 1 [15], 68%; in assay [16], 90%; on Histone deacetylase 1 [17], 18%; in assay [18], 28%; in assay [19], 70%. Besides, the Activity at Histone deacetylase 2 [20] amounted to 38%; in [21], 35%; on Histone deacetylase 1 [22] it was 37%. In addition, in the assay with Jurkat [12], the viability at 1 µM is 67%. The viability at 10 µM with Jurkat [13] turned out to be 39%.

On to `O=C(CCCC(CCC(=O)Nc1ccccc1)Cc1ccccc1)NO` (centres undefined), for which the IC50 is 0.38 µM against Histone deacetylase 8; 2.9 µM on Histone deacetylase 1 [4]; 5.8 µM at Histone deacetylase 3 [7]; 3.5 µM on Histone deacetylase 2 [8]; 6.2 µM in [9]; 0.27 µM in [14]. The Activity on Histone deacetylase 3 [1] was determined as 53%; in [2], 47%; on Histone deacetylase 2 [3], 49%; in assay [5], 82%; in assay [6] it was 65%; at Histone deacetylase 3 [10], 85%. The Activity in [11] was 43%; at Histone deacetylase 1 [15], 84%; in assay [16] it was 83%; on Histone deacetylase 1 [17] it was 45%; in assay [18] it was 26%; in assay [19], 76%. In addition, the figures for the Activity (on Histone deacetylase 2 [20]; in assay [21]; on Histone deacetylase 1 [22]) were 62%, 33% and 54%, respectively. Moreover, the viability at 1 µM in the assay with Jurkat [12] stood at 71%. The viability at 10 µM in the assay on Jurkat [13] worked out at 50%.

One may read the IC50 as the concentration needed to halve the response being measured. A higher IC50 goes with weaker potency in that assay. As a reminder, the viability is a read-out of living cells in per cent, often relative to untreated cells.
